In patent US20090298708A1, “2'-DEOXY-2'-FLUORO-BETA-D-ARABINONUCLEOSIDE 5'-TRIPHOSPHATES AND THEIR USE IN ENZYMATIC NUCLEIC ACID SYNTHESIS” (priority 2006, published 2009):

Experiments:
9N DNA polymerase = biological target: T1, 9N DNA polymerase (Thermococcus sp., UniProt Q56366, E143D); assay: Dropout assay, fidelity of incorporation by 9N; format: biochemical, Thermococcus species (strain 9° N-7); settings: 30 min reaction time, 25 μM triphosphates, 55° C., template A: PF41, G: PF43, T: PF21, C: PF23
T1 construct: purchased New England Biolabs; host or cells: E. coli
Experimental: (§1) FIG. 11A illustrates the fidelity of 2′F-araATP incorporation on a DNA template PF41 by DV and 9N DNA polymerases. Reaction conditions: 0.8 unit DV and 9N, 25 μM triphosphates at 55° C. in 30 μL reaction volume; incubation time: 30 min. Group 1 & 5: dNTPs; 2 & 6: dropout of dATP; 3 & 7: 2′F-araNTPs, 4 & 8: dropout of 2′F-araATP; 27mer control DNA is PF39.
(§2) FIG. 11B illustrates the fidelity of 2′F-araGTP incorporation on DNA template PF43 by DV and 9N DNA polymerases. Reaction conditions: primer/template (1:1 molar ratio): 100 nM; 0.4 μL (0.8 unit) DV, 9N, 25 μM triphosphate concentration at 55° C. in 30 μL reaction volume. Reaction time for dNTPs (group 1, 5) was 30 min and others were shown above. Group 1 & 5: dNTPs; 2 & 6: drop out dGTP (i.e. dTTP, dCTP and dATP), 3 & 7: 2TF-araNTPs, 4 & 8: drop out 2′F-araGTP; lane P is the template PF41 as the full-length product control; PF39 is a 27-nt DNA control. All samples were analyzed by 12% denaturing PAGE.
(§3) FIG. 12A illustrates the fidelity of 2′F-araTTP incorporation by DV and 9N DNA polymerases on a DNA template PF21. Reaction conditions: 100 nM primer/template (1:1 molar ratio); 0.4 μL (0.8 unit) DV or 9N, 25 μM triphosphate concentration at 55° C. in 30 μL reaction volume. Reaction time for dNTPs (group 1, 5) was 30 min and others were shown above. Groups 1 & 5: dNTPs; 2 & 6: drop out dTTP; 3 & 7: 2′F-araNTPs; 4 & 8: drop out 2′F-araTTPs. in B: group 1 & 5: dNTPs; 2 & 6: drop out dCTP; 3 & 7: 2′F-araNTPs; 4 & 8: drop out 2′F-araCTPs; PF39 is a 27-nt DNA control. All samples were analyzed by 12% denaturing PAGE.
as §3, with “12B” for “12A”, “fidelity study” for “fidelity”, “2′F-araCTP” for “2′F-araTTP”, “PF23.” for “PF21.”, “(groups” for “(group”, “Groups” for “Groups 1 & 5: dNTPs; 2 & 6: drop out dTTP; 3 & 7: 2′F-araNTPs; 4 & 8: drop out 2′F-araTTPs. in B: group”
(§4) “Dropout assays” (Ichida et al. (2005) J. Am. Chem. Soc. 127:2802-2803) were conducted to assess the fidelity of 2′F-araNTP incorporation (each of 2′F-araATP, 2′F-araCTP, 2′F-araGTP and 2′F-araTTP) by various DNA polymerases (FIGS. 11-14). For example, the 2′F-araNTP of interest is removed from the pool, and the ensuing synthesis on DNA template (e.g. PF21, PF23, PF41, PF43) assessed in comparison with a control reaction containing all four 2′F-araNTPs. For comparison, dropout experiments containing dNTPs are run in parallel. Full-length DNA and FANA products are obtained when all four dNTPs (group 1 and 5) and 2′F-araNTPs (groups 3 and 7) were available, however, some pausing may occur during synthesis of the arabinose modified oligomers. Apparent fidelity was calculated according to the equation:
(§5) 1−[(% full-length−2′F-araNTP)/(% full-length+2′F-araNTP)]
(§6) at 30 min reaction time (sample equation for dNTP values). >99% means that the full-length product was not detectable in our dropout assays.
(§7) “Dropout assays” (Ichida et al. (2005) J. Am. Chem. Soc. 127:2802-2803) were conducted to assess apparent fidelity of 2′F-araNTP incorporation by DV and 9N. In one of these assays, 2′F-araATP was removed from the pool, and the ensuing synthesis assessed in comparison with a control reaction containing all four 2′F-araNTPs. For comparison, dropout experiments containing dNTPs were run in parallel (FIGS. 11-14). Full-length DNA and FANA products were obtained when all four dNTPs (group 1 and 5) and 2′F-araNTPs (groups 3 and 7) were available, although some pausing was evident during synthesis of the arabinose modified oligomers.

[1] = tested on: Phusion DNA polymerase (Ph); assay: Dropout assay, fidelity of incorporation by Ph; format: biochemical; settings: 30 min reaction time, 55° C., templates PF21, PF41
Source text: FIG. 13 illustrates the fidelity of 2′F-araNTP incorporation on pyrimidine rich DNA template PF21 by Ph DNA polymerase. […] Template PF41 and primer PF20 are shown; PF39 is a 27-nt DNA control.
FIG. 14 illustrates the fidelity of 2′F-araNTP incorporation on purine rich DNA template PF41 by Ph DNA polymerase. The base sequence of the primer, DNA template and resulting terminated products in different dropout conditions (condition 1-5) is shown. […] Lane 1: dNTPs; 2: drop out dCTP (i.e. dATP, dGTP and dTTP, shorten as AGT, same coding for lanes 3-5), lane 6: 2′F-araNTPs; 7: drop out 2′F-araCTP (i.e. 2′F-araATP, 2′F-araGTP, 2′F-araTTP, shorten as AGT; same coding for lanes 8-10). The template PF41 and the primer PF20 are shown; PF39 is a 27mer DNA control.
For example, the 2′F-araNTP of interest is removed from the pool, and the ensuing synthesis on DNA template (e.g. PF21, PF23, PF41, PF43) assessed in comparison with a control reaction containing all four 2′F-araNTPs. For comparison, dropout experiments containing dNTPs are run in parallel. […] Apparent fidelity was calculated according to the equation:
as §5
In one of these assays, 2′F-araATP was removed from the pool, and the ensuing synthesis assessed in comparison with a control reaction containing all four 2′F-araNTPs. For comparison, dropout experiments containing dNTPs were run in parallel (FIGS. 11-14).
Phusion DNA polymerase (Ph) was evaluated for fidelity of 2′F-araNTP incorporation using the same dropout assay. All four dropout experiments were conducted with the same DNA template PF21 (FIG. 13), or PF41 (FIG. 14).

DV DNA polymerase = biological target: T2, DV DNA polymerase (Pyrococcus sp., UniProt Q51334, D141A/DEL493-1029/E143A); assay: Dropout assay, fidelity of incorporation by DV; format: biochemical, Pyrococcus species GB-D; settings: 30 min reaction time, 25 μM triphosphates, 55° C., template A: PF41, G: PF43, T: PF21, C: PF23
T2 construct: purchased New England Biolabs; host or cells: E. coli
Experimental: as §1, §2, §3
as §3, with “12B” for “12A”, “fidelity study” for “fidelity”, “2′F-araCTP” for “2′F-araTTP”, “PF23.” for “PF21.”, “(groups” for “(group”, “Groups” for “Groups 1 & 5: dNTPs; 2 & 6: drop out dTTP; 3 & 7: 2′F-araNTPs; 4 & 8: drop out 2′F-araTTPs. in B: group”
as §4, §5, §6, §7

MMLV-RT = biological target: T3, MMLV-RT (Moloney murine leukemia virus, UniProt P03355); assay: Primer extension assay with MMLV-RT; format: biochemical; settings: MMLV-RT; 37° C.; DNA template PF22 (T/U triphosphates) or PF24 (C triphosphates); three contiguous units
T3 construct: Reverse transcriptases (RT): • MMLV-RT (MMLV or MM; source: Fermentas); purchased Fermentas
Source text: (§8) Primer extension assays were used to assess the incorporation of 2′F-araNTP on the various DNA templates (Table 1). The DNA primer (PF20) was first radioactively labeled at the 5′-hydroxyl terminus with a radioactive phosphorus probe and the enzyme T4 polynucleotide kinase (T4 PNK) (see Example 1 for General Methods). To assess the incorporation of 2′F-araNTPs, the primer and template were annealed, and the nucleoside 5′-triphosphates added in the presence of enzyme under the conditions specified in Table 2. Time points were obtained by analyzing small aliquots from the reaction mixture through polyacryamide gel electrophoresis (PAGE) and autoradiography.
(§9) Primer extension assays were used to assess the incorporation efficiency of contiguous 2′F-ara(T/C)TPs compared to 2′F-r(U/C)TP on a DNA template (e.g. PF22 or PF24). To this end, a DNA template (e.g. PF22: FIGS. 15, 16, 17A, 18, 21A; PF24: FIGS. 17B, 19, 20, 21B), primer and the appropriate NTPs (e.g. combination of dATP/dCTP/dGTP/ and NTP, where N=dT, 2′F-araT, 2′F-rU, or rU (FIGS. 15, 16, 17A, 18, 21A); or combination of dATP/dGTP/dTTP/ and NTP, where N=dC, 2′F-araC, 2′F-rC, or rC (FIGS. 17B, 19, 20, 21B)), were incubated in the presence one of MMLV-RT, 9N, HIV or DV polymerase. The protocols and conditions are described in Example 2 and Table 2.
(§10) Unless otherwise noticed in the Examples described below, the conditions used in the primer extension assays, such as dNTP concentration, reaction temperatures, concentration of Mg^2+, and reaction buffers (provided by the manufacturers, except for the HIV buffer which was prepared in-house) are shown in Table 2.
(§11) Primer extension assays were used to assess the incorporation of 2′F-araTTP on the DNA template (PF22). The DNA primer (PF20) was first radioactively labeled at the 5′-hydroxyl terminus with a radioactive phosphorus probe and the enzyme T4 polynucleotide kinase (T4 PNK) according to the manufacturer's specifications (MBI Fermentas Life Sciences, Burlington, ON). Incorporation of the ^32P label was accomplished in reaction mixtures consisting of DNA substrate (200 pmol), 2 μl loxreaction buffer (Buffer A for forward reaction: 500 mM Tris-HCl, pH 7.6 at 25° C., 100 mM MgCl2, 50 mM DTT, 1 mM spermidine and 1 mM EDTA), 1 μl T4 PNK enzyme solution (10 U/1 μl in a solution of 20 mM Tris-HCl, pH 7.5, 25 mM KCl, 0.1 mM EDTA, 2 mM DTT and 50% glycerol), 6 μl [γ-^32P]-ATP solution (6000 Ci/mmol, 10 mCi/ml; Amersham Biosciences, Inc.) and autoclaved sterile water to a final volume of 20 μl. The reaction mixture was incubated for about 45-60 min at 37° C., followed by a second incubation for 10 min at 95° C. to heat denature and deactivate the kinase enzyme. The solution was purified according to a standard protocol and the isolated yield of 5′-^32P-DNA following gel extraction averages 50%. The pure labeled samples were kept at −20° C. for future use.
(§12) Usually 2 or 3 folds of cold (unlabeled) DNA primer were combined with the radioactive primer. Then primer to template was mixed together with the final concentration at 85 nM for the primer and 255 nM for the template (i.e. the primer:template=1:3 molar ratio). The primer and template were heated at 95° C. for 5 min and annealed at 4° C. for at least two hours before use. In an Eppendorf tube, the following reagents, 5× or 10× buffer, nucleoside 5′-triphosphates (DATP, dGTP, dCTP, 2′F-araTTP at the same concentrations; see legend of FIG. 2), water, the primer and template mixture, were added together according to pre-calculated reaction volume (20 μL) and concentrations (see reaction conditions in Table 2). Mineral oil (20 μL) was usually used to prevent evaporation. The reaction mixture was incubated at either 37° C. or 55° C. and one of the various enzymes tested was added to initiate the primer extension reactions. […]

DNA polymerases = assay: Primer extension assays, statement for all enzymes studied; format: biochemical; settings: DNA template PF24; 9N, HIV, MMLV, DV
HIV-1 RT (recombinant) = biological target: T4, HIV-1 RT (recombinant) (Human immunodeficiency virus type 1 group M subtype B, UniProt P04585); assay: Primer extension assay with HIV-1 RT; format: biochemical; settings: 37° C., DNA template PF22 (T/U triphosphates) or PF24 (C triphosphates), three contiguous units
T4 construct: Reverse transcriptases (RT): • MMLV-RT (MMLV or MM; source: Fermentas); • HIV-1 RT (recombinant); purchased Worthington Biochemical Corp
Source text: as §8, §9, §10, §11, §12

[2] = biological target: Phusion High-Fidelity DNA polymerase (Ph) (UniProt P61875); settings: apparent fidelity, all 2'F-araNTP and dNTP dropouts; 55 C

Molecule: Nc1ncnc2c1ncn2[C@H]1C[C@H](O)[C@@H](COP(=O)(O)OP(=O)(O)OP(=O)(O)O)O1 [dATP]
- % Apparent Fidelity, dNTP (9N DNA polymerase): 80%
- % Apparent Fidelity, dNTP [1]: >99%
- % Apparent Fidelity, dNTP (DV DNA polymerase): 1%

Molecule: Nc1nc2c(ncn2[C@H]2C[C@H](O)[C@@H](COP(=O)(O)OP(=O)(O)OP(=O)(O)O)O2)c(=O)[nH]1 [dGTP]
- % Apparent Fidelity, dNTP (9N DNA polymerase): 84%
- % Apparent Fidelity, dNTP [1]: >99%
- % Apparent Fidelity, dNTP (DV DNA polymerase): 62%

Molecule: Nc1ccn([C@@H]2O[C@H](COP(=O)(O)OP(=O)(O)OP(=O)(O)O)[C@@H](O)[C@H]2O)c(=O)n1 [rCTP, reference compound]
- Order of efficiency of incorporation (MMLV-RT): dCTP~2′F-rCTP ≧ 2′F-araCTP > CTP
- order of incorporation efficiency (DNA polymerases): dCTP=2′F-rCTP>2′F-araCTP >>rCTP
- Order of efficiency of incorporation (HIV-1 RT (recombinant)): dCTP~2′F-rCTP ≧ 2′F-araCTP > CTP

Molecule: O=c1ccn([C@@H]2O[C@H](COP(=O)(O)OP(=O)(O)OP(=O)(O)O)[C@@H](O)[C@H]2O)c(=O)[nH]1 [rUTP, reference compound]
- Order of efficiency of incorporation (MMLV-RT): dTTP > 2′F-araTTP > 2′F-rUTP > UTP
- Order of efficiency of incorporation (HIV-1 RT (recombinant)): dTTP > 2′F-araTTP > 2′F-rUTP > UTP

Molecule: TAATACGACTCACTATA / AGAGCCTGAGAAGAGAGTATAGTGAGTCGTATTA [PF20/PF41 primer-template]
- activity [2]: > 99%

Molecule: TAATACGACTCACTATA / TTTGCCACTCTTCTCCCTATAGTGAGTCGTATTA [PF20/PF21 primer-template]
- activity [2]: > 99%
